Drawing on a melting point compilation (Tetko et al.; mined from patent text by program, amines drawn as free bases though some values may be those of a salt), this text covers melting point for 85 molecules.

Structures are written as SMILES.

As to `NC1=NC(Cl)N(c2c([N+](=O)[O-])cc([N+](=O)[O-])cc2C(F)(F)F)C(Cl)=C1` (stereo not given), the melting point was 198 to 200 °C.

Turning to `CCCCc1ncc(/C=C(\Cc2cccs2)C(=O)O)n1Cc1ccc(C=CC(=O)O)cc1`, the melting point lay in the range of 199 to 203 °C.

Turning to `O=C(c1ccc[nH]1)c1cccn1N1C(=O)c2ccccc2C1=O`, the melting point was in the range of 204 to 206 °C.

Consider `Oc1ccc(-c2cc3cc(O)cc(Cn4ccnc4)c3o2)cc1`, for which the melting point was 269 to 271 °C.

Regarding `Nc1c(-c2ccc(O)cc2)ncnc1-c1ccc(Cl)cc1Cl`, the melting point is 97.3 to 98.2 °C.

Turning to `COc1ccccc1N1CCN(C(=O)CCCN2CC=C(c3c[nH]c4cc(F)ccc34)CC2)CC1`, the melting point was 118 to 120 °C.

As to `CC(C)(C)OC(=O)N1CCCC1C(=O)Nc1ccc(-n2nc(C(F)(F)F)cc2C(F)(F)F)cc1` (stereo not given), the melting point lay within 70 to 72 °C.

`NC(=O)c1ccc(-c2ccc(C(CC3CCOCC3)c3ccc(S(=O)(=O)C4CC4)cc3)[nH]2)nc1` (stereo not given) displayed a melting point of 136 to 138 °C.

`N#CCN1C(=O)N(c2ccc(C#N)c(C(F)(F)F)c2)C(=O)C1(CF)CF` displayed a melting point of 125 °C.

In turn, `Clc1cc(I)ccc1CBr` displayed a melting point of 44 to 45.5 °C.

Consider `CCOc1ccc(C2=NN(C3CCCCCC3)C(=O)[C@H]3CC=CC[C@@H]23)cc1OCC` (relative stereo), for which the melting point is 92 to 93 °C.

Consider `COC(=O)C(C)Oc1cccc(C=O)c1` (stereo not given), for which the melting point came out at 50.7 °C.

Molecule `COc1ccccc1-c1nc2cc(NC(=O)c3c(C(=O)O)cnn3C)ccn2n1` came in with a melting point of 283 °C.

For the molecule `CCCCNc1nc(-c2ccccc2)co1`, the melting point lay in the range of 52 to 53 °C.

Take `CN(C)Cc1ccc2nc(NC(=O)c3ccc(C(C)(C)C)cc3)cn2c1`: the melting point is 236 to 237 °C.

As to `C=CC[C@@H]1C[C@@H](COC(c2ccccc2)(c2ccccc2)c2ccccc2)N(Cc2ccc(OC)cc2)C1=O`, the melting point was 130 to 132 °C.

In turn, `CCCc1c(OCCCCCCc2cc(C)c(OC)c(OC)c2C)ccc(C(=O)O)c1O` came in with a melting point of 109 to 112 °C.

Consider `COCCCNS(=O)(=O)NC(=O)OC/C=C/c1ccc(OCCOC)cc1Oc1ncc(C(F)(F)F)cc1Cl`, for which the melting point lay within 98 to 100 °C.

The molecule `O=C(NC1CCCC1)c1ccc2nonc2c1` showed a melting point of 169 to 170 °C.

In turn, `COc1ccc(C=CC(=O)NCCc2ccc(I)c(S(N)(=O)=O)c2)c(OC)c1` returned a melting point of 180 °C.

As for `C=CCn1cc(Cc2ccc(C(=O)O)cc2OC)c2cc(C=C(C)C(=O)NCCC)ccc21`, the melting point lay within 84 to 90 °C.

On to `CN(C)C(=O)C(CCO)C1(C)OCCc2c1[nH]c1ccccc21` (stereo not given), for which the melting point is 158 to 160 °C.

`Cc1cn(Cc2cc(C)c3c(c2)-c2[nH]nc(-c4ccsc4)c2C3)cn1` displayed a melting point of 240 to 242 °C.

`COc1ccc(-n2cc(C#N)c(=O)[nH]c2=O)cc1`: the melting point was 304 to 306 °C.

For the molecule `CCCC1=C(C(=O)OCC)C(c2cccc(Cl)c2Cl)c2c[nH]nc2N1` (stereo not given), the melting point was 220 °C.

On to `Cc1cc(C)c(N2C(=O)C(C)Cc3c(Cl)nc(C)nc32)c(C)c1` (stereo not given), for which the melting point lay within 136 to 139 °C.

The molecule `CCCCC1=NOC(Cc2ccccc2)C(=O)N1` (stereo not given) yielded a melting point of 82 to 85 °C.

As for `CCCn1cnc2ncnn2c1=S`, the melting point is 168 to 169 °C.

`CC(=O)Nc1ccc(Cc2nc3c(c4c2[nH]c2ccccc24)C(=O)CC(C)(C)C3)cc1` had a melting point of 153 to 154 °C.

The molecule `CCOc1ccc2c(c1)n(C1CCOCC1)c(=O)n2S(=O)(=O)c1ccc(C(=O)O)cc1OC` showed a melting point of 255 °C.

The molecule `CCCNC(=O)c1ccc(C)c(-c2nc(N(C)CCCN(C)C)nc3c2ccc(=O)n3-c2c(F)cccc2F)c1` gave a melting point of 104 to 109 °C.

With `O=C(OCC1CCC1)c1ncc2n1-c1cccc(Br)c1C(=O)N1CCC[C@@H]21`, the melting point was 170 to 172 °C.

`CCN(CC)CCCCNc1ncc2c(n1)N(C1CCCC1)C(=O)N(c1c(F)c(OC)cc(OC)c1F)C2` had a melting point of 132 to 133 °C.

In turn, `CCOC(=O)C(C)Oc1ccc(Sc2ccc(C(F)(F)F)cc2[N+](=O)[O-])cc1` (stereo not given) came in with a melting point of 63 to 64 °C.

On to `CC(=Cc1ccccc1)c1ccc2c(c1)OCCC2(C)C`, for which the melting point is 44 to 46 °C.

In turn, `CCOC(=O)c1nc(SC)[nH]c(=O)c1OCc1ccccc1` yielded a melting point of 109 to 110 °C.

In turn, `O=C1CCCc2nc3ccccc3c(NCCCC(c3ccccc3)c3ccccc3)c21` gave a melting point of 86 to 88 °C.

With `CC(=O)Oc1cccc2c1C(=O)c1c(OC(C)=O)cc(-c3nnn[nH]3)cc1C2=O`, the melting point is 189 to 190 °C.

The molecule `Cc1cc(F)ccc1Nc1nc(N(C)c2ccccc2)c2cc(OCCN(C)C)ccc2n1` gave a melting point of 112 to 114 °C.

As for `CCCCOCCOc1ccc(-c2ccc3c(c2)C=C(C(=O)Nc2ccc(OCc4nccn4CCC)cc2)CCN3CC(C)C)cc1`, the melting point was in the range of 118 to 120 °C.

The molecule `Cc1c(Cl)nc2sc(SCc3ccccc3)nn2c1=O` gave a melting point of 102 to 104 °C.

Consider `CCCCCCS(=O)(=O)c1ccc(Oc2ccc(Br)cc2)nc1`, for which the melting point amounted to 94 °C.

On to `CCOC(=O)c1c(-c2cc(C(C)(C)C)c(O)c(C(C)(C)C)c2)c2cc3c(cc2oc1=O)CCC3`, for which the melting point fell in the range of 208 to 209 °C.

`C[C@@H]1CN(C(=O)OC(C)(C)C)Cc2cc3cc(F)cnc3n21` showed a melting point of 85 to 87 °C.

On to `Cn1cc(C2=CCC3(CC2)OCCO3)c2cc(C#N)ccc21`, for which the melting point was 65 to 67 °C.

`Cc1ccccc1C(=O)c1cc2c(c(Br)c1O)CCCC2` registered a melting point of 151 to 153 °C.

`CCCCCCCCCCCCCCCCCCN=C=NCCCCCCCCCCCCCCCCCC` had a melting point of 65 °C.

In turn, `CC(C)(C)[C@H]1CC[C@H](CC2=C(Cl)C(=O)c3ccccc3C2=O)CC1` displayed a melting point of 154 to 156 °C.

Molecule `Cc1cccc(-c2[nH]c(C(C)C)nc2-c2cccc(-c3ccsc3)c2)n1` came in with a melting point of 83 to 85 °C.

Molecule `O=C(O)c1ccc(-c2ccc(OCCCCCCO)cc2)cc1` gave a melting point of 235 °C.

The molecule `O=C(O)CCc1cn(Cc2ccc(OCc3ccccc3)cc2)nc1-c1ccccc1` came in with a melting point of 147 to 148 °C.

For the molecule `O=C(CCc1cccc([N+](=O)[O-])c1)c1c(O)c2cccnc2n(-c2ccccc2)c1=O`, the melting point lay in the range of 164 to 166 °C.

Regarding `CCn1c2cc(Cl)ccc2c2oc(C(=O)Cl)cc21`, the melting point lay within 137 to 138 °C.

With `c1ccc(OCCSCc2nnc(-c3ccc(OCCN4CCOCC4)cc3)o2)cc1`, the melting point fell in the range of 70 to 72 °C.

With `COc1cc(OC)c([N+](=O)[O-])c(C(=O)NC2CCN(C(c3ccccc3)c3ccccc3)CC2)c1`, the melting point is 148 to 150 °C.

The molecule `O=C(O)/C=C1\CCc2c(F)cc(F)cc21` came in with a melting point of 238 to 239 °C.

Molecule `COc1ccc(C(OCC2OC(n3cc(C)c(=O)[nH]c3=O)CC2O[Si](C)(C)C(C)(C)C)(c2ccccc2)c2ccc(OC)cc2)cc1` (stereo not given) showed a melting point of 214 °C.

On to `COC(=O)[C@@H](NS(=O)(=O)c1ccc(Br)cc1)C(C)C`, for which the melting point fell in the range of 88 to 90 °C.

`O=C(O)COc1ccc2cc(CNC(=O)c3cnn(-c4ccc(Cl)cc4)c3C(F)(F)F)ccc2c1Br` had a melting point of 245 °C.

In the case of `Cc1ccnc(C(=O)c2[nH]c3cc(Cl)ccc3c2NC(=O)CCN(C)C)c1`, the melting point was 170 to 171 °C.

Molecule `CCOC(=O)C1Cc2ccc(C(=O)c3ccc(NC(C)=O)c(Cl)c3)cc2C1` (stereo not given) returned a melting point of 126 to 127 °C.

For `C=CC[C@H]1C[C@@](OS(C)(=O)=O)(C(=O)OC)C[C@@H](OC(=O)c2ccccc2)[C@@H]1OS(C)(=O)=O`, the melting point lay within 154 to 155 °C.

For the molecule `CCOC(=O)C(Oc1nc(OC)cc(OC)n1)C(C)(C)c1ccccc1` (stereo not given), the melting point was 123 to 124 °C.

`CC(Oc1ccc(Oc2ccc(Oc3ccc(OC(C)C(=O)O)cc3)cc2)cc1)C(=O)O` (stereo not given) gave a melting point of 135 to 136 °C.

`NC(=O)CCNC(=O)c1cccc(-c2cccc3oc(Cc4cccc(C(F)(F)F)c4)cc23)c1` yielded a melting point of 155 to 156 °C.

For `COc1cc(C(C)=O)ccc1OCCCN1CCN(c2n[nH]c3cc(F)ccc23)CC1`, the melting point was in the range of 135 to 137 °C.

In the case of `C=CCc1c(OC)cc(C(=O)O)cc1OC`, the melting point lay in the range of 56 to 57 °C.

With `C[Si](C)(C)NC(=O)c1ccccc1`, the melting point fell in the range of 111 to 115 °C.

With `O=C(Nc1cccc(-c2ccnc3c(C(=O)c4cccs4)cnn23)c1)NC1CCCCC1`, the melting point is 233 to 236 °C.

For the molecule `CN(C)CC(=O)NCc1cccc(-c2csc(N=C(N)N)n2)n1`, the melting point is 199 °C.

As to `COc1ccc(C(=O)O)cc1OC(C)(C)C`, the melting point was in the range of 177 to 178 °C.

Consider `O=C(NCc1ccc(F)cc1)Nc1ccc(CN2C(=O)[C@H]3CCC[C@H]3N(C(=O)CN3C(=O)c4ccccc4C3=O)c3ccccc32)cc1` (relative stereo), for which the melting point is 154 to 156 °C.

Molecule `C=C(C)C(=O)Nc1ccc(C(=O)O)c(O)c1` had a melting point of 220 to 222 °C.

`CCc1c(C(C#N)c2cc(C)cc(C)c2)[nH]c(=O)[nH]c1=O` (stereo not given): the melting point lay within 105 to 107 °C.

Molecule `CCCCCC(CC(=O)Nc1cc(CO)ccc1C(C)(C)C)c1ccc(OC)cc1OC` (stereo not given) yielded a melting point of 125 to 126 °C.

In the case of `CCn1ncc2nc(C(=O)OCC#N)c(C)nc21`, the melting point lay within 83 to 84 °C.

`CC(C)(C)c1cc2c(Cl)ncnc2o1`: the melting point lay in the range of 72 to 74 °C.

For `COCCOc1ccc(CC(C)C(=O)O)c(Oc2ncc(C(F)(F)F)cc2Cl)c1` (stereo not given), the melting point is 130 to 131 °C.

In turn, `O=c1cc(-c2ccccc2)sc(N2CCOCC2)c1` came in with a melting point of 160 to 161 °C.

Regarding `Cn1ncnc1COc1nn2c(-c3ccccc3)nnc2cc1C1CCCCC1`, the melting point is 192 °C.

Molecule `CS(=O)(=O)Nc1cc(NC(=O)CN2C(=O)c3ccccc3C2=O)ccc1Oc1ccccc1` came in with a melting point of 208 to 209 °C.

On to `COC(=O)C1=C(C)NN=C(c2ccccc2)C1c1ccccc1Cl` (stereo not given), for which the melting point is 198 °C.

The molecule `COc1ccc(C(=O)Oc2ccc(O)cc2)cc1C12CC3CC(CC(C3)C1)C2` yielded a melting point of 236 to 237 °C.

On to `COc1ccc2cc(-c3ccc(Cl)c(-n4nc(C)c(C)n4)c3)c(=O)oc2c1`, for which the melting point was 180 °C.

In turn, `Cc1c(Br)nc(Br)c(=O)n1C` registered a melting point of 119 to 120 °C.
